Laboratory results reported in US20070105721A1, “Vinylogous 4-Hpyrones and their use in promoting plant growth” (priority 2003, published 2007).

Assays:
Type in all cases: in vivo
[1] = tested on: Grand Rapids Lettuce seeds (Waltham strain); assay: Grand Rapids bioassay; details: for Germination, Grand Rapids: compounds isolated from smoke, mean (SEM)
Experimental: Grand Rapids Lettuce seeds (Waltham strain) were obtained from R.B. Dessert Seed Co. and were frozen in sachets until use. For testing of aqueous samples, 2.5 mL of test solution was applied to three replicates of 40-50 seeds in Petri dishes (90 mm) lined with two layers of Whatman No. 1 filter paper (7 cm). Millipore filtered water (MP water) was used as a control for each experiment and dilutions of each sample were used to ensure the optimum concentration range for activity. Fractions were reconstituted to their original concentration (before fractionation) and dilutions were made using MP water. Petri dishes were sealed with a layer of plastic wrap, and stored in a light proof container. All manipulations involving the seed were carried out in a dark room and germinants, based on the appearance of a radicle, were scored after 48 hours incubation.

Stylidium affine seeds = assay: Native bioassay; details: compounds isolated from smoke; mean (SEM)
Experimental: (§1) Conostylis aculeata and Stylidium affine seeds were obtained from Nindethana seed service and stored before use. For testing of aqueous samples, three replicates of 20-30 sterilised seeds were added to UV sterilised petri dishes (90 mm), containing two Whatman No. 1 filter papers (7 cm) moistened with the filtered test solution (2.5 mL, 0.22 μm). MP water was used as a control for each experiment and dilutions of each sample were used to ensure the optimum concentration range for activity. Petri dishes were then sealed with parafilm and incubated in the dark at 20±1° C. The seeds were scored on a weekly basis with optimum germination achieved between 4-6 weeks.

[2] = tested on: Conostylis aculeata seeds; assay: Native bioassay; details: compounds isolated from smoke; mean (SEM)
Experimental: as §1

[3] = 100 ppm, * = inhibits germination at this concentration

Row | Structure (SMILES) | Germination of formula (5) analogues ([1]; 1 ppm) | Germination of formula (5) analogues ([1]; 10 ppm) | Germination of formula (5) analogues ([1]; 100 ppb) | Germination of formula (5) analogues [1, 3] | Germination, Stylidium affine (Stylidium affine seeds) [%] | Germination, Conostylis aculeata [2] | Germination, Grand Rapids [1]
1 | CCOC(=O)C=C1C=COC=C1 [Compound 5a, ethyl 2-(4H-pyran-4-ylidene) acetate] | 86.7 (±7.4) | 94.7 (±0.4) | 66.9 (±10.2) | 99.1 (±0.9) | – | – | –
2 | CCOC(=O)C(SC(C)=O)=C1C=COC=C1 [Compound 5b, ethyl 2-(acetylthio)-2-(4H-pyran-4-ylidene) acetate] | 64.7 (±4.5) | 82.6 (±3.4) | 54.3 (±7.2) | *39.4 (±2.7) | – | – | –
3 | CC1=CC(=CC(=O)c2ccccc2)C=C(C)O1 [Compound 5c, 2-(2,6-dimethyl-4H-pyran-4-ylidene)-1-phenylethanone] | 54.3 (±3.1) | 69.3 (±4.4) | 53.2 (±4.1) | 74.1 (±6.7) | – | – | –
4 | O=C1C=C(c2ccco2)CO1 [Compound L-1, 2,3′-bifuran-5′(2′H)-one] | – | – | – | – | 0 | 7.5 (1.3) % | 42.4 (6.6) %
5 | Cc1cc(=O)oc2ccoc12 [Compound L-3, 7-methyl-5H-furo[3,2-b]pyran-5-one] | – | – | – | – | 0 | 11.6 (2.5) % | 42.1 (1.5) %
